Measured values as given in ChEMBL document CHEMBL1142720, “Fluoro-olefins as peptidomimetic inhibitors of dipeptidyl peptidases” (J Med Chem, 2005).
pIC50: −log10 of the molar value.

Tests used:
[1] = target: Dipeptidyl peptidase 4 (Homo sapiens, UniProt P27487); test: Inhibitory concentration against human Dipeptidylpeptidase IV
[2] = target: Dipeptidyl peptidase 2 (Homo sapiens, UniProt Q9UHL4); test: Inhibitory concentration against human Dipeptidylpeptidase II

Dipeptidyl peptidase 4, sequence (P27487 whole entry): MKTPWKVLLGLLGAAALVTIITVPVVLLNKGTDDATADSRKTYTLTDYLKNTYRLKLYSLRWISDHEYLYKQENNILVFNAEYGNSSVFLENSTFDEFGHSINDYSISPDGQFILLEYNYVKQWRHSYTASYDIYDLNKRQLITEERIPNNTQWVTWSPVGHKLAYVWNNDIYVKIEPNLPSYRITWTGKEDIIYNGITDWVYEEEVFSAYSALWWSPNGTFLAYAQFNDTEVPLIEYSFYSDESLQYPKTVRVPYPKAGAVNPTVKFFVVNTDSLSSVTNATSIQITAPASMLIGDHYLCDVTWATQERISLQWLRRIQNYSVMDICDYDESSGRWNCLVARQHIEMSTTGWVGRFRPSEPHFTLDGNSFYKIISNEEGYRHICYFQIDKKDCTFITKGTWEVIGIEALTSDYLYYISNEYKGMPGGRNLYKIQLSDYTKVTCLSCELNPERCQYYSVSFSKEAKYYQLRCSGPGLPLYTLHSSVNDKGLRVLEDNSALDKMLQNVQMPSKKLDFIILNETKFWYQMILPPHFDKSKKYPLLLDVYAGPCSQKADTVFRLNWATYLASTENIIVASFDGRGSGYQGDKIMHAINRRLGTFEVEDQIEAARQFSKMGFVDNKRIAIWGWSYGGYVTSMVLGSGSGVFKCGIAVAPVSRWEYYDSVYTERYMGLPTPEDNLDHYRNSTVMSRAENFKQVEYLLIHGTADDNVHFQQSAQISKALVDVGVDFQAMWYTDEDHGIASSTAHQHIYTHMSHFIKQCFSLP

| SMILES | pIC50 [1] | pIC50 [2] |
| --- | --- | --- |
| N#CC1CCC/C1=C(/F)CNCc1ccc(F)cc1 (centres undefined) | < 3.00 |  |
| O=C(CNCc1ccccc1)N1CCCC1 | 3.00 | 3.30 |
| FC(CNc1ccccc1)=C1CCCCC1 | < 3.60 |  |
| S=C(CNCc1ccccc1)N1CCCCC1 | < 3.00 |  |
| FC(CNCCc1ccccc1)=C1CCCCC1 | < 3.00 |  |
| N#CC1CCC/C1=C(\F)CNCc1ccc(F)cc1 (centres undefined) | < 3.30 |  |
| S=C(CNC1CCCCC1)N1CCCCC1 | < 3.00 |  |
| CN(C)CCCNCC(F)=C1CCCCC1 | < 3.00 |  |
| S=C(CNCc1ccc2c(c1)OCO2)N1CCCCC1 | < 3.00 |  |
| FC(CNCCc1ccccc1)=C1CCCC1 | < 3.00 |  |
| C(CNC1CCCCC1)=C1CCCC1 | < 3.00 |  |
| FC(CNCCc1ccccn1)=C1CCCC1 | < 3.00 |  |
| CN1CCC(NCC(F)=C2CCCCC2)CC1 | < 3.90 |  |
| FC(CNCc1ccccc1)=C1CCCCC1 | < 3.00 |  |
| O=C(CNCc1ccccc1)N1CCCCC1 | < 3.00 | 3.40 |
| FC(CNC1CCNCC1)=C1CCCCC1 | < 3.00 |  |
| FC(CNC1CCCCC1)=C1CCCC1 | < 3.00 |  |
| N#CC1CCC/C1=C(/F)CNCCc1ccccc1 (centres undefined) | < 3.30 |  |
| C(CNCc1ccccc1)=C1CCCC1 | < 3.00 |  |
| O=C(CNCc1ccc2c(c1)OCO2)N1CCCC1 | < 3.00 |  |

| SMILES | pIC50 [1] | pIC50 [2] |
| --- | --- | --- |
| O=C(CNC1CCCCC1)N1CCCCC1 | < 3.00 | 3.75 |
| O=C(CNC1CCCCC1)N1CCCC1 | 3.83 | 3.56 |
| C(CNCc1ccc2c(c1)OCO2)=C1CCCC1 | < 3.60 |  |
| N#CC1CCC/C1=C(/F)CNC12CC3CC(CC(C3)C1)C2 (centres undefined) |  | < 4.00 |
| FC(CNC12CC3CC(CC(C3)C1)C2)=C1CCCCC1 | < 3.60 |  |
| CN(C)CCCNCC(F)=C1CCCC1 | < 3.00 |  |
| FC(CNCc1ccc(F)cc1)=C1CCCC1 | < 3.00 |  |
| FC(CNCc1ccc2c(c1)OCO2)=C1CCCCC1 | < 3.60 |  |
| FC(CNCc1cccc(C(F)(F)F)c1)=C1CCCCC1 | < 3.90 |  |
| COc1ccc(CNCC(F)=C2CCCCC2)cc1 | < 3.60 |  |
| N#CC1CCC/C1=C(\F)CNC12CC3CC(CC(C3)C1)C2 (centres undefined) |  | < 4.00 |
| FC(CNC1CCCCC1)=C1CCCCC1 | < 3.30 | 3.30 |
| FC(CNC1CCN(Cc2ccccc2)CC1)=C1CCCC1 | < 3.60 |  |
| FC(CNCc1ccc(F)cc1)=C1CCCCC1 | < 3.60 |  |
| FC(CNC1CCN(Cc2ccccc2)CC1)=C1CCCCC1 | < 3.60 |  |
| N#CC1CCC/C1=C(\F)CNCCc1ccccc1 (centres undefined) | < 3.00 |  |
| FC(CNCc1ccccc1)=C1CCCC1 | < 3.00 |  |
| COc1ccc(CNCC(F)=C2CCCC2)cc1 | < 3.00 |  |
| O=C(CNCc1ccc2c(c1)OCO2)N1CCCCC1 | < 3.00 |  |
